Laboratory results reported in patent publication US6479435B1, “Diaryl ethers and processes for their preparation and herbicidal and desiccant compositions containing them” (ISK Americas Incorporated, priority 1997, dated 2002).

Legend:
Format in all cases: in vivo
[1] = test system: Johnsongrass (Sorghum halepense, SORHA); test: Pre-emerge greenhouse herbicide test, phytotoxicity rating; details: Sorghum halepense, pre-emergence, 336 h, 14 days after application, rating scale 0-100; for pest or weed control at 125 g/ha: Rate 125 g al/ha; for pest or weed control at 500 g/ha: Rate 500 g al/ha
In short: (§1)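 Visual 0–100 injury rating (100 = all plants dead) taken 14 days after treatment. Rates of 125–1000 g ai/ha in acetone, 187 l/ha, were sprayed onto soil one day post-sowing; pots were surface-watered to incorporate, then bottom-watered.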

[2] = test system: redroot pigweed (Amaranthus retroflexus, AMARE); test: as above; details: Amaranthus retroflexus, pre-emergence, 336 h, 14 days after application, rating scale 0-100; for pest or weed control at 125 g/ha: Rate 125 g al/ha; for pest or weed control at 500 g/ha: Rate 500 g al/ha
In short: as §1

[3] = test system: velvetleaf (Abutilon theophrasti, ABUTH); test: as above; details: Abutilon theophrasti, pre-emergence, 336 h, 14 days after application, rating scale 0-100; for pest or weed control at 125 g/ha: Rate 125 g al/ha; for pest or weed control at 500 g/ha: Rate 500 g al/ha
In short: as §1

[4] = test system: green foxtail (Setaria viridis, SETVI); test: as above; details: Setaria viridis, pre-emergence, 336 h, 14 days after application, rating scale 0-100; for pest or weed control at 125 g/ha: Rate 125 g al/ha; for pest or weed control at 500 g/ha: Rate 500 g al/ha
In short: as §1

[5] = test system: lambsquarters (Chenopodium album, CHEAL); test: as above; details: Chenopodium album, pre-emergence, 336 h, 14 days after application, rating scale 0-100; for pest or weed control at 125 g/ha: Rate 125 g al/ha; for pest or weed control at 500 g/ha: Rate 500 g al/ha
In short: as §1

[6] = test system: ivyleaf morningglory (Ipomoea hederacea, IPOHE); test: as above; details: Ipomoea, pre-emergence, 336 h, 14 days after application, rating scale 0-100; for pest or weed control at 125 g/ha: Rate 125 g al/ha; for pest or weed control at 500 g/ha: Rate 500 g al/ha
In short: as §1

[7] = test system: Johnsongrass (Sorghum halepense, SORHA); test: Post-emerge greenhouse herbicide test, phytotoxicity rating; details: Sorghum halepense, post-emergence, 336 h, 14 days after application, scale 0-100; for pest or weed control at 63 g/ha: rate 63 g ai/ha; for pest or weed control at 500 g/ha: rate 500 g ai/ha
In short: (§2)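 Scores use a 0 (no damage) to 100 (complete kill) scale, taken 14 days after a foliar spray. Acetone solutions with 0.25% v/v non-ionic surfactant were applied by track sprayer at 187 l/ha and 63-1000 g ai/ha to bottom-watered 2-3 leaf plants.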

[8] = test system: redroot pigweed (Amaranthus retroflexus, AMARE); test: as above; details: Amaranthus retroflexus, post-emergence, 336 h, 14 days after application, scale 0-100; for pest or weed control at 63 g/ha: rate 63 g ai/ha; for pest or weed control at 500 g/ha: rate 500 g ai/ha
In short: as §2

[9] = test system: barnyardgrass (Echinochloa crusgalli, ECHCG); test: as above; details: Echinochloa crus-galli, post-emergence, 336 h, 14 days after application, scale 0-100; for pest or weed control at 63 g/ha: rate 63 g ai/ha; for pest or weed control at 500 g/ha: rate 500 g ai/ha
In short: as §2

[10] = test system: velvetleaf (Abutilon theophrasti, ABUTH); test: as above; details: Abutilon theophrasti, post-emergence, 336 h, 14 days after application, scale 0-100; for pest or weed control at 63 g/ha: rate 63 g ai/ha; for pest or weed control at 500 g/ha: rate 500 g ai/ha
In short: as §2

[11] = test system: green foxtail (Setaria viridis, SETVI); test: as above; details: Setaria viridis, post-emergence, 336 h, 14 days after application, scale 0-100; for pest or weed control at 63 g/ha: rate 63 g ai/ha; for pest or weed control at 500 g/ha: rate 500 g ai/ha
In short: as §2

[12] = test system: lambsquarters (Chenopodium album, CHEAL); test: as above; details: Chenopodium album, post-emergence, 336 h, 14 days after application, scale 0-100; for pest or weed control at 63 g/ha: rate 63 g ai/ha; for pest or weed control at 500 g/ha: rate 500 g ai/ha
In short: as §2

[13] = test system: large crabgrass (Digitaria sanguinalis, DIGSA); test: as above; details: Digitaria sanguinalis, post-emergence, 336 h, 14 days after application, scale 0-100; for pest or weed control at 63 g/ha: rate 63 g ai/ha; for pest or weed control at 500 g/ha: rate 500 g ai/ha
In short: as §2

[14] = test system: sicklepod (Cassia obtusifolia, CASOB); test: as above; details: Senna obtusifolia, post-emergence, 336 h, 14 days after application, scale 0-100; for pest or weed control at 63 g/ha: rate 63 g ai/ha; for pest or weed control at 500 g/ha: rate 500 g ai/ha
In short: as §2

[15] = test system: ivyleaf morningglory (Ipomoea hederacea, IPOHE); test: as above; details: Ipomoea, post-emergence, 336 h, 14 days after application, scale 0-100; for pest or weed control at 63 g/ha: rate 63 g ai/ha; for pest or weed control at 500 g/ha: rate 500 g ai/ha
In short: as §2

## Nn1c(C(F)(F)F)cc(=O)n(-c2cc(Oc3cc(C(F)(F)F)ccn3)c(Cl)cc2F)c1=O [Compound 9-8, 1-Amino-3-[4-chloro-2-fluoro-5-(4-trifluoromethyl-2-pyridyloxy)phenyl]-6-trifluoromethyl-1,2,3,4-tetrahydropyrimidine-2,4-dione]
[1]
  pest or weed control at 125 g/ha: 50%
  pest or weed control at 500 g/ha: 99%
[2]
  pest or weed control at 125 g/ha: 100%
  pest or weed control at 500 g/ha: 100%
[3]
  pest or weed control at 125 g/ha: 100%
  pest or weed control at 500 g/ha: 100%
[4]
  pest or weed control at 125 g/ha: 40%
  pest or weed control at 500 g/ha: 100%
[5]
  pest or weed control at 125 g/ha: 100%
  pest or weed control at 500 g/ha: 100%
[6]
  pest or weed control at 125 g/ha: 95%
  pest or weed control at 500 g/ha: 100%
[7]
  pest or weed control at 63 g/ha: 30%
  pest or weed control at 500 g/ha: 90%
[8]
  pest or weed control at 63 g/ha: 100%
  pest or weed control at 500 g/ha: 100%
[9]
  pest or weed control at 63 g/ha: 10%
  pest or weed control at 500 g/ha: 95%
[10]
  pest or weed control at 63 g/ha: 100%
  pest or weed control at 500 g/ha: 100%
[11]
  pest or weed control at 63 g/ha: 30%
  pest or weed control at 500 g/ha: 75%
[12]
  pest or weed control at 63 g/ha: 95%
  pest or weed control at 500 g/ha: 100%
[13]
  pest or weed control at 63 g/ha: 10%
  pest or weed control at 500 g/ha: 30%
[14]
  pest or weed control at 63 g/ha: 30%
  pest or weed control at 500 g/ha: 30%
[15]
  pest or weed control at 63 g/ha: 95%
  pest or weed control at 500 g/ha: 100%

## N#Cc1cccnc1Oc1cc(-n2c(=O)cc(C(F)(F)F)n(N)c2=O)c(F)cc1Cl [Compound 9-9, 1-Amino-3-[4-chloro-2-fluoro-5-(3-cyano-2-pyridyloxy)phenyl]-6-trifluoromethyl-1,2,3,4-tetrahydropyrimidine-2,4-dione]
[1]
  pest or weed control at 125 g/ha: 100%
  pest or weed control at 500 g/ha: 100%
[2]
  pest or weed control at 125 g/ha: 100%
  pest or weed control at 500 g/ha: 100%
[3]
  pest or weed control at 125 g/ha: 100%
  pest or weed control at 500 g/ha: 100%
[4]
  pest or weed control at 125 g/ha: 100%
  pest or weed control at 500 g/ha: 100%
[5]
  pest or weed control at 125 g/ha: 100%
  pest or weed control at 500 g/ha: 100%
[6]
  pest or weed control at 125 g/ha: 100%
  pest or weed control at 500 g/ha: 100%
[7]
  pest or weed control at 63 g/ha: 40%
  pest or weed control at 500 g/ha: 100%
[8]
  pest or weed control at 63 g/ha: 100%
  pest or weed control at 500 g/ha: 100%
[9]
  pest or weed control at 63 g/ha: 10%
  pest or weed control at 500 g/ha: 100%
[10]
  pest or weed control at 63 g/ha: 100%
  pest or weed control at 500 g/ha: 100%
[11]
  pest or weed control at 63 g/ha: 20%
  pest or weed control at 500 g/ha: 90%
[12]
  pest or weed control at 63 g/ha: 90%
  pest or weed control at 500 g/ha: 100%
[13]
  pest or weed control at 63 g/ha: 10%
  pest or weed control at 500 g/ha: 90%
[14]
  pest or weed control at 63 g/ha: 90%
  pest or weed control at 500 g/ha: 100%
[15]
  pest or weed control at 63 g/ha: 90%
  pest or weed control at 500 g/ha: 100%

## N#Cc1ccc(Oc2cc(-n3c(=O)cc(C(F)(F)F)n(N)c3=O)c(F)cc2Cl)nc1 [Compound 9-10, 1-Amino-3-[4-chloro-2-fluoro-5-(5-cyano-2-pyridyloxy)phenyl]-6-trifluoromethyl-1,2,3,4-tetrahydropyrimidine-2,4-dione]
[1]
  pest or weed control at 125 g/ha: 95%
  pest or weed control at 500 g/ha: 100%
[2]
  pest or weed control at 125 g/ha: 100%
  pest or weed control at 500 g/ha: 100%
[3]
  pest or weed control at 125 g/ha: 100%
  pest or weed control at 500 g/ha: 100%
[4]
  pest or weed control at 125 g/ha: 100%
  pest or weed control at 500 g/ha: 100%
[5]
  pest or weed control at 125 g/ha: 100%
  pest or weed control at 500 g/ha: 100%
[6]
  pest or weed control at 125 g/ha: 100%
  pest or weed control at 500 g/ha: 100%
[7]
  pest or weed control at 63 g/ha: 60%
  pest or weed control at 500 g/ha: 95%
[8]
  pest or weed control at 63 g/ha: 100%
  pest or weed control at 500 g/ha: 80%
[9]
  pest or weed control at 63 g/ha: 20%
  pest or weed control at 500 g/ha: 95%
[10]
  pest or weed control at 63 g/ha: 100%
  pest or weed control at 500 g/ha: 100%
[11]
  pest or weed control at 63 g/ha: 20%
  pest or weed control at 500 g/ha: 70%
[12]
  pest or weed control at 63 g/ha: 100%
  pest or weed control at 500 g/ha: 100%
[13]
  pest or weed control at 63 g/ha: 10%
  pest or weed control at 500 g/ha: 20%
[14]
  pest or weed control at 63 g/ha: 40%
  pest or weed control at 500 g/ha: 50%
[15]
  pest or weed control at 63 g/ha: 100%
  pest or weed control at 500 g/ha: 100%
